Like-named read-outs stand apart in the source and are kept apart here.
Key:
SARS-CoV-2 [1] = assay: microbe, parasite or virus in culture; format: cell-based; details: for EC50: read-out: Antiviral Activity against SARS-CoV-2 Vero EC50; for EC90: read-out: Antiviral Activity against SARS-CoV-2 Vero EC90; for inhibition at 20 µM: read-out: inhibition of SARS-CoV-2 in the initial antiviral evaluation assay
SARS-CoV-2 [2] = assay: SARS-CoV-2 antiviral activity assay in Calu-3 cells; format: cell-based
SARS-CoV-2 [3] = assay: Time-of-drug-addition assay in Vero cells; format: cell-based; details: compound at EC90, Vero cells, MOI 0.1
SARS-CoV-2 pseudovirus = assay: microbe, parasite or virus in culture; format: cell-based; details: for inhibition at 1.1 µM / inhibition at 3.3 µM / inhibition at 10 µM / inhibition at 30 µM: Severe acute respiratory syndrome-related coronavirus, Huh7.5 cells, vs untreated sample, read-out: SARS-CoV-2 Pseudovirus Entry Inhibition (%)
[4] = biological target: SARS-CoV-2 RNA polymerase complex (nsp12/nsp7/nsp8) (Severe acute respiratory syndrome coronavirus 2, UniProt P0DTD1); assay: SARS-CoV-2 RdRp primer extension assay; format: biochemical; details: 14-nucleotide RNA product on gel
[5] = biological target: SARS-CoV-2 nsp5 (3CL protease) (Severe acute respiratory syndrome coronavirus 2, UniProt P0DTD1); details: nsp5, 50 µM compound vs DMSO
SARS-CoV-2 nsp12 (RdRp) = SARS-CoV-2 nsp12 (RdRp) (Severe acute respiratory syndrome coronavirus 2, UniProt P0DTD1); details: nsp12, 50 µM compound vs DMSO
SARS-CoV-2 nsp14 = SARS-CoV-2 nsp14 (Severe acute respiratory syndrome coronavirus 2, UniProt P0DTD1); details: nsp14, 50 µM compound vs DMSO
SARS-CoV-2 3CL = details: enzyme-inhibition experiments ref 31; read-out: IC50, antiprotease activity against SARS-CoV-2 3CL; cited from earlier work
SARS-CoV-2 [6] = details: Vero E6 cells ref 31; cited from earlier work
[7] = Cytotoxicity in Calu3 cells; details: human
[8] = tested on: SARS-CoV-2 3CL protease (nsp5); parameters: method as in PMID 32746637; details: previous report ref 29; read-out: IC50, enzymatic activity of SARS-CoV-2 3CL protease (nsp5); cited from earlier work
[9] = MTS cytotoxicity assay in Vero cells; details: African green monkey
[10] = Severe acute respiratory syndrome coronavirus 2, 48 h, Vero cells, MOI 0.1, virus yield 2 days post-treatment
[11] = Severe acute respiratory syndrome coronavirus 2, Vero
[12] = Severe acute respiratory syndrome coronavirus 2, human Calu-3 cells, read-out: Antiviral Activity against SARS-CoV-2 Calu-3 EC50
[13] = Severe acute respiratory syndrome coronavirus 2, human Calu-3 cells, read-out: Antiviral Activity against SARS-CoV-2 Calu-3 EC90
[14] = Severe acute respiratory syndrome coronavirus 2, Vero, 48 h

Row | Structure (SMILES) | EC50 (SARS-CoV-2 [1]; [10]) | EC90 (SARS-CoV-2 [1]; [10]) | inhibition at 20 µM (SARS-CoV-2 [1]; [11]) | EC50 (SARS-CoV-2 [2]; [12]) | EC90 (SARS-CoV-2 [2]; [13]) | time of addition post-infection up to which replication is significantly inhibited (SARS-CoV-2 [3]) | inhibitory activity on SARS-CoV-2 cell entry (in words) (SARS-CoV-2 pseudovirus) | inhibition at 1.1 µM (SARS-CoV-2 pseudovirus) | inhibition at 3.3 µM (SARS-CoV-2 pseudovirus) | inhibition at 10 µM (SARS-CoV-2 pseudovirus) | inhibition at 30 µM (SARS-CoV-2 pseudovirus) | inhibition of SARS-CoV-2 RdRp activity (in words) [4] | IC50 (SARS-CoV-2 3CL) | EC50 (SARS-CoV-2 [6]) | CC50 [7] | other results
1 | O=c1cc(-c2ccccc2)oc2cc(O)c(O)c(O)c12 [Baicalein, baicalein] | 4.5 ± 0.2 µM | 7.6 ± 0.3 µM | 99.8% | 1.2 ± 0.03 µM | 6.2 ± 0.04 µM | up to 8 h | no inhibitory activity | -2% | -1.9% | 3.9% | 14.6% | more potent inhibition of SARS-CoV-2 RdRp activity compared to baicalin | 0.94 µM | 2.94 µM |  | ΔTm [5]: 0.9 °C; ΔTm (SARS-CoV-2 nsp12 (RdRp)): 3.9 °C; ΔTm (SARS-CoV-2 nsp14): 1.5 °C; CC50 ([7]; Calu3 cells): 91 ± 0.05 µM
2 | O=C(O)[C@H]1O[C@@H](Oc2cc3oc(-c4ccccc4)cc(=O)c3c(O)c2O)[C@H](O)[C@@H](O)[C@@H]1O [Baicalin, baicalin] | 9 ± 0.08 µM | 15.8 ± 0.2 µM | 98% | 8 ± 0.11 µM | 15.1 ± 0.2 µM | up to 6 h | no inhibitory activity | -12.1% | -11.9% | -6.6% | -3.3% | inhibit the activity of the SARS-CoV-2 RdRp | 6.41 µM | 27.9 µM | > 100 µM | IC50 [8]: 34.7 µM; CC50 at 4 days [9]: > 100 µM
3 | CCC(CC)COC(=O)[C@H](C)N[P@](=O)(OC[C@H]1O[C@@](C#N)(c2ccc3c(N)ncnn23)[C@H](O)[C@@H]1O)Oc1ccccc1 [Remdesivir, reference compound] |  |  |  |  |  |  |  |  |  |  |  |  |  |  | > 100 µM | EC50 (SARS-CoV-2 [1]; [14]): 1 ± 0.1 µM; EC90 (SARS-CoV-2 [1]; [14]): 3.3 ± 0.3 µM; EC50 (SARS-CoV-2 [2]; Severe acute respiratory syndrome coronavirus 2, Calu-3, read-out: Antiviral Activity against SARS-CoV-2 Calu-3 EC50): 0.14 ± 0.02 µM; EC90 (SARS-CoV-2 [2]; Severe acute respiratory syndrome coronavirus 2, Calu-3, read-out: Antiviral Activity against SARS-CoV-2 Calu-3 EC90): 0.5 ± 0.03 µM

Reference: article PMC8143456 (Microorganisms, 2021)
